US12240844B2 (Voronoi, Inc., priority 2019, dated 2025)

Assays:
Assay type in all cases: biochemical
[1] = biological target: T1, human GST-DYRK1A (full length) (Homo sapiens, UniProt Q13627); assay: GST-DYRK1A enzyme inhibition, ADP-Glo kinase assay; conditions: read-out: DYRK1 IC50
T1 construct: purified human GST-DYRK1A (full length, Thermo scientifics) enzyme; GST; purchased Thermo scientifics
How it was run: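 Full-length human GST-DYRK1A (10 ng) incubated with 10 uM ATP and specific substrate for 1 h at 25° C in 40 mM Tris-HCl pH 7.4, 20 mM MgCl2, 0.5 mg/mL BSA, 50 uM DTT. ADP formation read by ADP-Glo luminescence; IC50 (nM) versus solvent control, triplicate.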

[2] = biological target: T2, human GST-CLK1 (129-end) (Homo sapiens, UniProt P49759); assay: GST-CLK1 enzyme inhibition, ADP-Glo kinase assay; conditions: ATP 10 uM
T2 construct: purified human GST-CLK1 (129-end, Signalchem) enzyme; GST; purchased Signalchem
How it was run: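 GST-CLK1 (129-end, 3 ng) reacted with 10 uM ATP and substrate in 40 mM Tris-HCl pH 7.4, 20 mM MgCl2, 0.5 mg/mL BSA, 50 uM DTT, 1 h at 25° C. ADP-Glo luminescence normalised to solvent control; IC50 from triplicate data.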

[3] = biological target: LRRK2 (Homo sapiens, UniProt Q5S007); assay: LRRK2 enzyme inhibition, ADP-Glo kinase assay; parameters: purchased Invitrogen PR8604B
Experimental: In order to evaluate the inhibitory activity of the compounds according to the present invention on LRRK2, LRRK2 (G2019S), DYRK1, CLK1 and TTK kinases, the following experiment was performed.
Example compounds were reacted with the purified human LRRK2 (Invitrogen #PR8604B) enzyme to evaluate the enzyme inhibitory ability as follows. The reaction buffer was used as the composition of 40 mM Tris-HCl pH7.4, 20 mM MgCl2, 0.5 mg/ml BSA and 50 μM DTT, and the reaction of all test materials was performed on the reaction buffer. The compound was diluted with 10 mM DMSO stock in 12 steps by a serial dilution method, and the enzyme activity was measured at the final compound concentrations of 50, 10, 2, 0.4, 0.08, 0.016, 0.0032, 0.00064, 0.000128, 0.0000256, 0.00000512 and 0.000001024 μM. In the test, the human LRRK2 (25 ng) enzyme was reacted with the purified ATP (10 μM) and an enzyme substrate ([…]) at 25° C. for 2 hours, and then the enzyme activity was identified using the in vitro ADP-Glo™ kinase assay (promega). The enzyme activity reaction liquid, an ADP-Glo reaction liquid and an enzyme potency detection solution were reacted in a ratio of 2:2:1, and the degree of inhibition of enzyme activity was measured by Luminescence. The degree of inhibition of enzyme activity according to the treatment concentrations of the respective compounds was calculated based on the fluorescence of the enzyme activity of a solvent control group that was not treated with the compound, where the concentration of each compound to inhibit enzyme activity inhibition by 50% was determined as an IC50 (nM) value and obtained using Prism (Version 5.01, GraphPad) software.
In the table below, the following designations were used for the evaluation of enzyme inhibitory ability.

[4] = biological target: LRRK2 (G2019S) (Homo sapiens, UniProt Q5S007, G2019S); assay: LRRK2 G2019S enzyme inhibition, ADP-Glo kinase assay; parameters: purchased SignalChem L10-12GG
How it was run: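 Purified human LRRK2 G2019S (16 ng) with 25 μM ATP and 0.2 μg substrate, 2 h at 25° C in 40 mM Tris-HCl pH 7.4, 20 mM MgCl2, 0.5 mg/ml BSA, 50 μM DTT; compound at 12 final concentrations from 50 μM downward. ADP-Glo luminescence versus solvent control gave IC50 (nM).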

LRRK2, sequence (Q5S007 970-2527 limits assumed): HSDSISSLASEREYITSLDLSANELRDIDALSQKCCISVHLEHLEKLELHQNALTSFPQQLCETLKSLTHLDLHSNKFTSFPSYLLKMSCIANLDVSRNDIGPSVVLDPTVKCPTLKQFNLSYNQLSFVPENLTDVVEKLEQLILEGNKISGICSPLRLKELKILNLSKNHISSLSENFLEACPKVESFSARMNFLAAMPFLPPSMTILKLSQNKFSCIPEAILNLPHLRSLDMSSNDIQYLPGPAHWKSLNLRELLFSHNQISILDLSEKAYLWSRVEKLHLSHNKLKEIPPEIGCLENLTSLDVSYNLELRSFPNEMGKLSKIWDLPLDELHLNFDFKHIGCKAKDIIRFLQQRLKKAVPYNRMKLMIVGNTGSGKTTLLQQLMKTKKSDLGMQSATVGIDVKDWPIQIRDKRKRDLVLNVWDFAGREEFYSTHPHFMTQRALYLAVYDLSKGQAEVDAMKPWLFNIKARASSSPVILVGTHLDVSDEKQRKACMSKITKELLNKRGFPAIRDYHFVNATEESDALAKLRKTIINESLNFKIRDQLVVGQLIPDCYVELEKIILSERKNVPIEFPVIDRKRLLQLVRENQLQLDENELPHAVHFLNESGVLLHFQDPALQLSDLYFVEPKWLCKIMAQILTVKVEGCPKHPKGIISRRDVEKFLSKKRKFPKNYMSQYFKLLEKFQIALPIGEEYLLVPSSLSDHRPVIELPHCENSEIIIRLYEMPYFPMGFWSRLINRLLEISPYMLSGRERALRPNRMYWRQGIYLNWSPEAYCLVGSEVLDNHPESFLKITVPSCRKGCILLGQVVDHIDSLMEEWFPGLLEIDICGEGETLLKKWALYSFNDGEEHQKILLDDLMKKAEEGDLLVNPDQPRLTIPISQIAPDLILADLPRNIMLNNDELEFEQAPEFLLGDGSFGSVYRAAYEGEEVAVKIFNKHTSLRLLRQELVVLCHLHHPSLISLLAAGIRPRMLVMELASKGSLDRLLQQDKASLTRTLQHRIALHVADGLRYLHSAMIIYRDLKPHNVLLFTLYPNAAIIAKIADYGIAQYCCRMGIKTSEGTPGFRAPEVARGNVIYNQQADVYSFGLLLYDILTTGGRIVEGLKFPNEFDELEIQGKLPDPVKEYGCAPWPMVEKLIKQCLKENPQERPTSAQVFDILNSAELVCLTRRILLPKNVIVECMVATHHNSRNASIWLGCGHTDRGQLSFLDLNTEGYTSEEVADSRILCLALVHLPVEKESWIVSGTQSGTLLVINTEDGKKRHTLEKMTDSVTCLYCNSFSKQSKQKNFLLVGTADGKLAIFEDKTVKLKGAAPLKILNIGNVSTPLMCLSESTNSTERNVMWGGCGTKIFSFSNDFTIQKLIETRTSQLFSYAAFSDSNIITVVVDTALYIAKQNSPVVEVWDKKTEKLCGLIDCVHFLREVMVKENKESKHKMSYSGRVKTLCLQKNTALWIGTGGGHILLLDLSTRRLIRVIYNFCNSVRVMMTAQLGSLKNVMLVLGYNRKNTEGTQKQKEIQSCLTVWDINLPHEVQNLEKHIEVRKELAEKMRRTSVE
T2 sequence (P49759 129-484 limits assumed): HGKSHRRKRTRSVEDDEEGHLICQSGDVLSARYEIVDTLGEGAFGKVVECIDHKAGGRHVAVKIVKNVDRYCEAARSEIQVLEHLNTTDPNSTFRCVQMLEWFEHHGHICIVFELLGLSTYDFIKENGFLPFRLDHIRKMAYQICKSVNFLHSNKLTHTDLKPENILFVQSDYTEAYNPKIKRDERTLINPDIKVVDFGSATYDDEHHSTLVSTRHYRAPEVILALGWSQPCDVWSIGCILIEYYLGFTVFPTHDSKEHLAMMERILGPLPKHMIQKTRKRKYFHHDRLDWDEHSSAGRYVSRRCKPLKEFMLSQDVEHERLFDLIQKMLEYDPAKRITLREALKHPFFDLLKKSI
LRRK2 (G2019S), sequence (Q5S007 970-2527 G2019S limits assumed): as the sequence (Q5S007 970-2527 limits assumed) above, with G1050S counted along it

## CNc1cc(Nc2ccc(C(=O)N3C[C@@H]4C[C@H]3CO4)c3c2OCCO3)nc2[nH]cc(C(F)(F)F)c12 [Example 43, ((1S,4S)-2-oxa-5-azabicyclo[2.2.1]heptan-5-yl)(8-((4-(methylamino)-3-(trifluoromethyl)-1H-pyrrolo[2,3-b]pyridin-6-yl)amino)-2,3-dihydrobenzo[b] [1,4]dioxin-5-yl)methanone]
[1]
  IC50: < 100 nM
[2]
  IC50: < 100 nM
[3]
  IC50: < 100 nM

## CCCNc1cc(Nc2ccc(P3(=O)CCN(C4CC4)CC3)cc2OC)nc2[nH]cc(C(F)(F)F)c12 [Example 45, 1-cyclopropyl-4-(3-methoxy-4-((4-(propylamino)-3-(trifluoromethyl)-1H-pyrrolo[2,3-b]pyridin-6-yl)amino)phenyl)-1,4-azaphosphinane 4-oxide]
[1]
  IC50: 101 to 300 nM
[2]
  IC50: 301 to 1000 nM
[3]
  IC50: 101 to 300 nM

## COc1cc(P2(=O)CCN(C3CC3)CC2)ccc1Nc1cc(NC2CCC2)c2c(C(F)(F)F)c[nH]c2n1 [Example 46, 4-(4-((4-(cyclobutylamino)-3-(trifluoromethyl)-1H-pyrrolo[2,3-b]pyridin-6-yl)amino)-3-methoxyphenyl)-1-cyclopropyl-1,4-azaphosphinane 4-oxide]
[1]
  IC50: 301 to 1000 nM
[2]
  IC50: 301 to 1000 nM
[3]
  IC50: 301 to 1000 nM

## CN(C)c1cc(Nc2ccc(C(=O)N3CCC(N4CCOCC4)CC3)c3c2OCCO3)nc2[nH]cc(C(F)(F)F)c12 [Example 50, (8-((4-(dimethylamino)-3-(trifluoromethyl)-1H-pyrrolo[2,3-b]pyridin-6-yl)amino)-2,3-dihydrobenzo[b] [1,4]dioxin-5-yl)(4-morpholinopiperidin-1-yl)methanone]
[1]
  IC50: 301 to 1000 nM
[2]
  IC50: < 100 nM
[3]
  IC50: < 100 nM

## CCN(C)c1cc(Nc2ccc(C(=O)N3CCC(N4CCOCC4)CC3)c3c2OCCO3)nc2[nH]cc(C(F)(F)F)c12 [Example 51, (8-((4-(ethyl(methyl)amino)-3-(trifluoromethyl)-1H-pyrrolo[2,3-b]pyridin-6-yl)amino)-2,3-dihydrobenzo [b] [1,4]dioxin-5-yl)(4-morpholinopiperidin-1-yl)methanone]
[1]
  IC50: 301 to 1000 nM
[2]
  IC50: 101 to 300 nM
[3]
  IC50: 101 to 300 nM

## CNc1cc(Nc2ccc(S(C)(=N)=O)cc2OC)nc2[nH]cc(C(F)(F)F)c12 (stereo not drawn) [Example 103, N^6-(2-methoxy-4-(s-methylsulfonylimidoyl)phenyl)-N^4-methyl-3-(trifluoromethyl)-1H-pyrrolo[2,3-b]pyridine-4,6-diamine]
[1]
  IC50: 301 to 1000 nM
[2]
  IC50: 301 to 1000 nM
[3]
  IC50: 101 to 300 nM

## CNc1cc(Nc2ccc(P3(=O)CCN(C4COC4)CC3)cc2OC)nc2[nH]cc(C#N)c12 [Example 142, 6-((2-methoxy-4-(1-(oxetan-3-yl)-4-oxido-1,4-azaphosphinan-4-yl)phenyl)amino)-4-(methylamino)-1H-pyrrolo[2,3-b]pyridine-3-carbonitrile]
[1]
  IC50: 101 to 300 nM
[2]
  IC50: 301 to 1000 nM
[3]
  IC50: < 100 nM

## CCNc1cc(Nc2ccc(P3(=O)CCN(C4COC4)CC3)cc2OC)nc2[nH]cc(C#N)c12 [Example 143, 4-(ethylamino)-6-((2-methoxy-4-(1-(oxetan-3-yl)-4-oxido-1,4-azaphosphinan-4-yl)phenyl)amino)-1H-pyrrolo[2,3-b]pyridine-3-carbonitrile]
[1]
  IC50: 301 to 1000 nM
[2]
  IC50: 101 to 300 nM
[3]
  IC50: < 100 nM

## COCCNc1cc(Nc2ccc(P3(=O)CCN(C4COC4)CC3)cc2OC)nc2[nH]cc(C#N)c12 [Example 144, 6-((2-methoxy-4-(1-(oxetan-3-yl)-4-oxido-1,4-azaphosphinan-4-yl)phenyl)amino)-4-((2-methoxyethyl)amino)-1H-pyrrolo[2,3-b]pyridine-3-carbonitrile]
[1]
  IC50: 301 to 1000 nM
[2]
  IC50: 101 to 300 nM
[3]
  IC50: < 100 nM

## CCNc1cc(Nc2ccc(P3(=O)CCN(C(C)=O)CC3)cc2OC)nc2[nH]cc(C#N)c12 [Example 145, 6-((4-(1-acetyl-4-oxido-1,4-azaphosphinan-4-yl)-2-methoxyphenyl)amino)-4-(ethylamino)-1H-pyrrolo[2,3-b]pyridine-3-carbonitrile]
[1]
  IC50: 101 to 300 nM
[2]
  IC50: 301 to 1000 nM
[3]
  IC50: < 100 nM

## CCNc1cc(Nc2ccc(P3(=O)CCN(C4CC4)CC3)cc2OC)nc2[nH]cc(C#N)c12 [Example 147, 6-((4-(1-cyclopropyl-4-oxido-1,4-azaphosphinan-4-yl)-2-methoxyphenyl)amino)-4-(ethylamino)-1H-pyrrolo[2,3-b]pyridine-3-carbonitrile]
[1]
  IC50: < 100 nM
[2]
  IC50: 301 to 1000 nM
[3]
  IC50: < 100 nM

## COC[C@@H](C)Nc1cc(Nc2ccc(C(=O)N3CCOCC3)c3c2OCCO3)nc2[nH]cc(C(F)(F)F)c12 [Example 159, (R)-(8-((4-((1-methoxypropan-2-yl)amino)-3-(trifluoromethyl)-1H-pyrrolo[2,3-b]pyridin-6-yl)amino)-2,3-dihydrobenzo [b] [1,4]dioxin-5-yl)(morpholino) methanone]
[1]
  IC50: 101 to 300 nM
[2]
  IC50: < 100 nM
[3]
  IC50: < 100 nM

## CN(C)CCNc1cc(Nc2ccc(C(=O)N3CCOCC3)c3c2OCCO3)nc2[nH]cc(C(F)(F)F)c12 [Example 171, (8-((4-((2-(dimethylamino)ethyl)amino)-3-(trifluoromethyl)-1H-pyrrolo[2,3-b]pyridin-6-yl)amino)-2,3-dihydrobenzo [b] [1,4]dioxin-5-yl)(morpholino) methanone]
[1]
  IC50: 301 to 1000 nM
[2]
  IC50: 301 to 1000 nM
[3]
  IC50: < 100 nM

## CN(C)CCNc1cc(Nc2ccc(C(=O)N3CCC(N4CCOCC4)CC3)c3c2OCCO3)nc2[nH]cc(C(F)(F)F)c12 [Example 172, (8-((4-((2-(dimethylamino)ethyl)amino)-3-(trifluoromethyl)-1H-pyrrolo[2,3-b]pyridin-6-yl)amino)-2,3-dihydrobenzo[b] [1,4]dioxin-5-yl)(4-morpholinopiperidin-1-yl)methanone]
[1]
  IC50: 301 to 1000 nM
[2]
  IC50: 101 to 300 nM
[3]
  IC50: < 100 nM

## CCCNc1cc(Nc2ccc(C(=O)N3CCOCC3)c3c2OCCO3)nc2[nH]cc(C(F)(F)F)c12 [Example 174, morpholino(8-((4-(propylamino)-3-(trifluoromethyl)-1H-pyrrolo[2,3-b]pyridin-6-yl)amino)-2,3-dihydrobenzo[b] [1,4]dioxin-5-yl)methanone]
[1]
  IC50: 301 to 1000 nM
[2]
  IC50: 301 to 1000 nM
[3]
  IC50: 101 to 300 nM

## COc1cc(S(C)(=O)=O)ccc1Nc1cc(NC2CCC2)c2c(C(F)(F)F)c[nH]c2n1 [Example 204, N^4-cyclobutyl-N^6-(2-methoxy-4-(methylsulfonyl)phenyl)-3-(trifluoromethyl)-1H-pyrrolo[2,3-b]pyridine-4,6-diamine]
[1]
  IC50: 301 to 1000 nM
[2]
  IC50: 301 to 1000 nM
[3]
  IC50: 301 to 1000 nM

## CCNc1cc(Nc2ccc(P3(=O)CCN(CC)CC3)cc2OC)nc2[nH]cc(C(F)(F)F)c12 [Example 210, 1-ethyl-4-(4-((4-(ethylamino)-3-(trifluoromethyl)-1H-pyrrolo[2,3-b]pyridin-6-yl)amino)-3-methoxyphenyl)-1,4-azaphosphinane 4-oxide]
[1]
  IC50: < 100 nM
[2]
  IC50: < 100 nM
[3]
  IC50: < 100 nM

## CCNc1cc(Nc2ccc(C(=O)N3CCC(N4C[C@@H](C)O[C@@H](C)C4)CC3)c3c2OCC3)nc2[nH]cc(C(F)(F)F)c12 [Example 263, (4-((2S,6R)-2,6-dimethylmorpholino)piperidin-1-yl)(7-((4-(ethylamino)-3-(trifluoromethyl)-1H-pyrrolo[2,3-b]pyridin-6-yl)amino)-2,3-dihydrobenzofuran-4-yl)methanone]
[1]
  IC50: < 100 nM
[2]
  IC50: < 100 nM
[4]
  IC50: < 100 nM

## CCNc1cc(Nc2ccc(P3(=O)CCN(Cc4ccc(OC)cc4OC)CC3)cn2)nc2[nH]cc(C(F)(F)F)c12 [Example 267, 1-(2,4-dimethoxybenzy 1)-4-(6-((4-(ethylamino)-3-(trifluoromethyl)-1H-pyrrolo[2,3-b]pyridin-6-yl)amino)pyridin-3-yl)-1,4-azaphosphinane 4-oxide]
[1]
  IC50: < 100 nM
[2]
  IC50: < 100 nM
[4]
  IC50: < 100 nM
